Experimental data reported in PMC6522510 (Nature Communications, 2019).
Structures can show the parent of a compound that is named as a salt. Where two headings read alike, the source gives them in different places.

Experiments:
Set-up in all cases: species or system AML cell lines (8); Primary HTS, single concentration about 10 uM, Cell Titer Glo viability; log10 luminescence, per cent inhibition relative to cycloheximide control
Details in all cases: 72 h, relative to cycloheximide control, log10 luminescence, inhibitor
[1] = system: M07e
[2] = system: CMS
[3] = system: CMK
[4] = system: ML-2
[5] = system: MV4-11
[6] = system: MOLM-13
[7] = system: CHRF288-11
[8] = system: U937

SMILES | M07e %inh [1] [%] | CMS %inh [2] [%] | CMK %inh [3] [%] | ML-2 %inh [4] [%] | MV4-11 %inh [5] [%] | MOLM-13 %inh [6] [%] | CHRF288-11 %inh [7] [%] | U937 %inh [8] [%] | M07e %inh ([1]; M07e %inh, 10 µM) [%] | CMS %inh ([2]; CMS %inh, 10 µM) [%] | CMK %inh ([3]; CMK %inh, 10 µM) [%] | ML-2 %inh ([4]; ML-2 %inh, 10 µM) [%] | MV4-11 %inh ([5]; MV4-11 %inh, 10 µM) [%] | MOLM-13 %inh ([6]; MOLM-13 %inh, 10 µM) [%] | CHRF288-11 %inh ([7]; CHRF288-11 %inh, 10 µM) [%] | U937 %inh ([8]; U937 %inh, 10 µM) [%]
CCc1cc(C(N)=S)ccn1 [SJ000285764-4, ETHIONAMIDE] | 0.2673 | -3.091 | -7.383 | 0.2945 | -3.503 | -0.3958 | 8.533 | -1.304 |  |  |  |  |  |  |  | 
CC(=O)OCC(=O)[C@@]12OC(C)(C)O[C@@H]1C[C@H]1[C@@H]3C[C@H](F)C4=CC(=O)C=C[C@]4(C)[C@@]3(F)[C@@H](O)C[C@@]12C [SJ000285768-4, FLUOCINONIDE] | 4.323 | 8.496 | 3.895 | 0.7594 | 1.473 | 6.203 | 0.7625 | 4.65 |  |  |  |  |  |  |  | 
Cc1ccc(C)c(OCCCC(C)(C)C(=O)O)c1 [SJ000285775-4, GEMFIBROZIL] |  |  |  |  |  |  |  |  | 3.732 | 6.72 | 2.032 | -0.7985 | 1.327 | 2.26 | -1.527 | -0.006863
Cc1ccc(C)c(OCCCC(C)(C)C(=O)O)c1 [SJ000285775-5, GEMFIBROZIL] |  |  |  |  |  |  |  |  | 4.331 | 12.02 | 52.47 | 5.256 | 21.39 | 7.787 | 15.66 | 12.09
N=C(N)NCCN1CCCCCCC1 [SJ000285779-4, GUANETHIDINE SULFATE] | 0.2704 | -3.451 | -2.691 | 1.503 | -2.801 | -0.2658 | -6.834 | -2.581 |  |  |  |  |  |  |  | 
NS(=O)(=O)c1cc2c(cc1Cl)NCNS2(=O)=O [SJ000285785-7, HYDROCHLOROTHIAZIDE] | -2.196 | 1.584 | 2.395 | 4.295 | 1.232 | 5.809 | 2.834 | -0.1321 |  |  |  |  |  |  |  | 
CCCCCC(=O)O[C@]1(C(C)=O)CC[C@H]2[C@@H]3CCC4=CC(=O)CC[C@]4(C)[C@H]3CC[C@@]21C [SJ000285789-3, HYDROXYPROGESTERONE CAPROATE] | 0.1043 | -0.655 | 2.985 | -1.962 | -1.131 | 1.659 | -3.09 | 3.003 |  |  |  |  |  |  |  | 
CC(=O)Nc1nnc(S(N)(=O)=O)s1 [SJ000285803-7, ACETAZOLAMIDE] | -1.461 | 0.5025 | 2.601 | -2.151 | 1.807 | 3.554 | 0.8463 | -0.874 |  |  |  |  |  |  |  | 
Oc1ncnc2[nH]ncc12 [SJ000285807-6, ALLOPURINOL] | -3.01 | -3.837 | -2.837 | -1.752 | -0.8311 | -2.79 | 0.3228 | 0.524 |  |  |  |  |  |  |  | 
COc1ccc(C(Cl)=C(c2ccc(OC)cc2)c2ccc(OC)cc2)cc1 [SJ000285822-4, CHLOROTRIANISENE] | 9.609 | 1.562 | 7.136 | 4.119 | 5.688 | 5.231 | -2.199 | 7.913 |  |  |  |  |  |  |  | 
NC(N)=Nc1nc(CSCC/C(N)=N/S(N)(=O)=O)cs1 [SJ000285829-7, FAMOTIDINE] | 1.389 | 0.7839 | 0.6614 | 2.616 | -0.5719 | 1.07 | -4.142 | 7.705 |  |  |  |  |  |  |  | 
CCc1cccc2c3c([nH]c12)C(CC)(CC(=O)O)OCC3 (centres unmarked) [SJ000285831-7, ETODOLAC] | 4.534 | 0.03623 | 4.628 | 1.517 | 1.346 | 1.754 | -0.814 | -0.08316 |  |  |  |  |  |  |  | 
Nc1ccc(S(=O)(=O)Nc2ccccn2)cc1 [SJ000285852-4, SULFAPYRIDINE] |  |  |  |  |  |  |  |  | -0.2217 | 2.156 | -3.962 | 1.702 | 0.2362 | -2.284 | -1.153 | 2.235
Nc1ccc(S(=O)(=O)Nc2ccccn2)cc1 [SJ000285852-5, SULFAPYRIDINE] |  |  |  |  |  |  |  |  | 0.899 | 2.339 | -1.27 | -1.492 | 1.788 | 1.863 | 1.364 | 0.04414
CC(C(=O)O)c1ccc(C(=O)c2cccs2)cc1 (centres unmarked) [SJ000285866-4, SUPROFEN] | -0.1194 | -1.053 | 0.7662 | 4.32 | -0.1438 | 1.517 | 0.5358 | 0.9376 |  |  |  |  |  |  |  | 
Cc1ccc(S(=O)(=O)NC(=O)NN2CCCCCC2)cc1 [SJ000285887-7, TOLAZAMIDE] | 4.47 | 0.4752 | -1.031 | -1.198 | 0.7665 | 0.3359 | 90.56 | -0.04508 |  |  |  |  |  |  |  | 
NCCCC[C@H](N[C@@H](CCc1ccccc1)C(=O)O)C(=O)N1CCC[C@H]1C(=O)O [SJ000285890-4, LISINOPRIL] |  |  |  |  |  |  |  |  | -2.951 | -0.4714 | 2.277 | -0.08728 | 2.293 | -2.286 | -6.515 | 5.753
NCCCC[C@H](N[C@@H](CCc1ccccc1)C(=O)O)C(=O)N1CCC[C@H]1C(=O)O [SJ000285890-5, LISINOPRIL] |  |  |  |  |  |  |  |  | -0.6293 | -0.7769 | -4.631 | 2.151 | 1.898 | -1.932 | 0.1312 | 0.1781
CCCCNc1cc(C(=O)O)cc(S(N)(=O)=O)c1Oc1ccccc1 [SJ000285893-7, BUMETANIDE] |  |  |  |  |  |  |  |  | -2.011 | 2.865 | -6.073 | -1.959 | -2.25 | -2.419 | -2.258 | 1.768
CCCCNc1cc(C(=O)O)cc(S(N)(=O)=O)c1Oc1ccccc1 [SJ000285893-8, BUMETANIDE] |  |  |  |  |  |  |  |  | 45.31 | 2.258 | -0.903 | -0.3091 | 2.839 | 2.916 | -1.756 | 0.292
NC[C@H]1CC[C@H](C(=O)O)CC1 [SJ000285898-4, TRANEXAMIC ACID] | 0.2149 | -4.095 | -3.012 | 1.648 | -0.1986 | -3.616 | -2.741 | -1.275 |  |  |  |  |  |  |  | 
CC(=O)OC/C=C(C)/C=C/C=C(C)/C=C/C1=C(C)CCCC1(C)C [SJ000285933-3, RETINYL ACETATE] | 2.591 | 2.535 | 13.65 | 2.843 | 3.526 | 0.103 | 13.53 | 8.926 |  |  |  |  |  |  |  | 
